Data on 24 compounds can be found in ChEMBL document CHEMBL1201862, “PubChem BioAssay data set” (2004).

Activity calls are given as the source filed them.

Assay [1] deals with T1, Corticotropin-releasing factor receptor 2/Corticotropin-releasing factor-binding protein (Homo sapiens, UniProt P24387+Q13324).
T1 sequence (Q13324 whole entry): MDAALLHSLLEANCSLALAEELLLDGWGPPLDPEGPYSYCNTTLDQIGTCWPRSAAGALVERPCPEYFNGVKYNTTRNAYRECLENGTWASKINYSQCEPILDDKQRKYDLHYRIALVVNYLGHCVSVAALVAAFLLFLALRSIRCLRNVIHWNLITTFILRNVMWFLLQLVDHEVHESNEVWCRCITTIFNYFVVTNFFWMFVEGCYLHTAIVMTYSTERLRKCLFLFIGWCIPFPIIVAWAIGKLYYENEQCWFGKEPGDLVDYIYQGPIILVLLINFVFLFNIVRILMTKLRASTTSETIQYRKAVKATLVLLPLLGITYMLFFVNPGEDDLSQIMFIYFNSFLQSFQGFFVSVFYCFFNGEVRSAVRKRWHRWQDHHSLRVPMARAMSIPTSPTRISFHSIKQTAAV
T1 sequence (P24387 whole entry): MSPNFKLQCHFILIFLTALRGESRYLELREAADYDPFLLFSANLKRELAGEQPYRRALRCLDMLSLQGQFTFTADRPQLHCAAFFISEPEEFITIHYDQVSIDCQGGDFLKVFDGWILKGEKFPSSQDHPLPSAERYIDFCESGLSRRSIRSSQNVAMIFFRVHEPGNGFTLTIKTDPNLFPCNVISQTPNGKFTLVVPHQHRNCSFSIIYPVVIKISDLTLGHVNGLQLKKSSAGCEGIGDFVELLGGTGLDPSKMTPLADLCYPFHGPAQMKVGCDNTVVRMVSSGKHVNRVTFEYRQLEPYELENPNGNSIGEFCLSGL
Put plainly: Dose Response confirmation of uHTS hits for small molecule antagonists of the CRF-binding protein and CRF-R2 receptor complex. It is filed as functional. The conditions noted are these: read-out: IC50_Mean.

Assay [2] deals with T1, Corticotropin-releasing factor receptor 2/Corticotropin-releasing factor-binding protein. Put plainly: activators of CRF receptor 2 with binding protein – uHTS hits, confirmation (AID 602473). It is filed as functional. The conditions noted are these: read-out: EC50_Mean.
The next assay relates to H9c2. Put plainly: cells. It is filed as functional, cell-based. Conditions: Rattus norvegicus, H9c2, Myocardium.
Another assay concerns the target Large T antigen (Simian virus 40, UniProt P03070). It counts as functional, Betapolyomavirus macacae.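 Also: Confirmatory-stage PubChem screen for compounds that inhibit SV40 T antigen.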
For assay [3], the target named is T2, Rac GTPase-activating protein 1 (Homo sapiens, UniProt Q9H0H5).
T2 sequence (Q9H0H5 whole entry): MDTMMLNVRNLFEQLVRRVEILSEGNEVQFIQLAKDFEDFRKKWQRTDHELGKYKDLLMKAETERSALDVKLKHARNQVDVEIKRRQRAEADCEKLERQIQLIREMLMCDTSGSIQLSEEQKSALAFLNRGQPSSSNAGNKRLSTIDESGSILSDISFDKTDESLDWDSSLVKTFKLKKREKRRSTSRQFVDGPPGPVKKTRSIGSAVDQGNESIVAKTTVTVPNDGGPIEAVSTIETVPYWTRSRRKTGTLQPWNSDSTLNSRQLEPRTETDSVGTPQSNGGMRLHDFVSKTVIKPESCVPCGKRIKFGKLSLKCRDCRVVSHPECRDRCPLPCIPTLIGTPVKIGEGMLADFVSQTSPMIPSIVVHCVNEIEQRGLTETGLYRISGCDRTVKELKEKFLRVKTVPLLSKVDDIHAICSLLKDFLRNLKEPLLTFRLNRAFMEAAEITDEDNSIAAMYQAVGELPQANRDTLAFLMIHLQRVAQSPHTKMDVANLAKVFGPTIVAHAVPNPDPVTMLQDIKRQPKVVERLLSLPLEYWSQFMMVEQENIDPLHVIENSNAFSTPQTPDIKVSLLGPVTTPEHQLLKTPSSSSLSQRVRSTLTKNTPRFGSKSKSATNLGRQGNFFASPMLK
Put plainly: MgcRacGAP GTPase-activating activity inhibitors, confirmation, biochemical, ADP Hunter fluorescence, primary and confirmatory (AID 624330). It is filed as functional.

A short description of assay [4]: inhibitors of intracellular T. cruzi replication, confirmation, NIH3T3 host cells, beta-gal luminescence (AID 2044).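 Also: intracellular parasites grown in NIH/3T3 mouse fibroblasts as host cells; luminescent beta-galactosidase reporter signal from transgenic T. cruzi replicating inside host cells; inhibitors lower the luminescence signal.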 It counts as functional, cell-based.
A short description of assay [5]: cytotoxicity toward NIH3T3 fibroblasts, dose response, counter-screen, cell-based, ATP luminescence, mouse fibroblasts (AID 2010).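 Also: cells exposed to compound for about 90 hours before reading.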 It counts as functional. (In general: The purpose of a counterscreen is to sort out artefacts and off-target activity.)
Assay [6] deals with T3, Replicative DNA helicase DnaB (Mycobacterium tuberculosis, UniProt P9WMR3).
T3 sequence (P9WMR3 whole entry): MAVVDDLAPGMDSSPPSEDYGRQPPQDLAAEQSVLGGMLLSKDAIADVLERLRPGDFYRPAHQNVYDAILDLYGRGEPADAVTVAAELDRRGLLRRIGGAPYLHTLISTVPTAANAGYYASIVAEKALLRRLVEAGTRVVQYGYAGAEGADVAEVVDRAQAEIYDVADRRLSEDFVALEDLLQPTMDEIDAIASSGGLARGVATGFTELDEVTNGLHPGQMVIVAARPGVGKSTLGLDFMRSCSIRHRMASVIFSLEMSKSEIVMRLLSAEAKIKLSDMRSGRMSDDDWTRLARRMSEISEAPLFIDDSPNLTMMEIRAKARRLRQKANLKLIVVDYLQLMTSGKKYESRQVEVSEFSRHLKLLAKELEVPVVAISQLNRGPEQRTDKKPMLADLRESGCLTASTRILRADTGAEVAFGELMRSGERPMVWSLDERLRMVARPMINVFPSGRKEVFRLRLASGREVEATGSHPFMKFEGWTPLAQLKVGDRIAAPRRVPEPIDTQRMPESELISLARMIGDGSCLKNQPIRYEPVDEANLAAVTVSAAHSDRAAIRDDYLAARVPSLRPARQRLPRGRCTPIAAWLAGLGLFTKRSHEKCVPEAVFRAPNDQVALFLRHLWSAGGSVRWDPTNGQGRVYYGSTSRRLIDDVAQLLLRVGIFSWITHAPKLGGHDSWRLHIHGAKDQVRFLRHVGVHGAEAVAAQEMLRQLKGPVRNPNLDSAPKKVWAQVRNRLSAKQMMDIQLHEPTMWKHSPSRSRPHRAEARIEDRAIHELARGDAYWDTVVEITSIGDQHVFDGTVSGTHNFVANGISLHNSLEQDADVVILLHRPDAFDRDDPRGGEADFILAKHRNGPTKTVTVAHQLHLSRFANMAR
In words: DnaB intein splicing inhibitors, dose response, biochemical, cell-free fluorescence (AID 449749). It counts as functional.

In a further assay the target is T4, Protein RecA (Mycobacterium tuberculosis, UniProt P9WHJ3).
T4 sequence (P9WHJ3 whole entry): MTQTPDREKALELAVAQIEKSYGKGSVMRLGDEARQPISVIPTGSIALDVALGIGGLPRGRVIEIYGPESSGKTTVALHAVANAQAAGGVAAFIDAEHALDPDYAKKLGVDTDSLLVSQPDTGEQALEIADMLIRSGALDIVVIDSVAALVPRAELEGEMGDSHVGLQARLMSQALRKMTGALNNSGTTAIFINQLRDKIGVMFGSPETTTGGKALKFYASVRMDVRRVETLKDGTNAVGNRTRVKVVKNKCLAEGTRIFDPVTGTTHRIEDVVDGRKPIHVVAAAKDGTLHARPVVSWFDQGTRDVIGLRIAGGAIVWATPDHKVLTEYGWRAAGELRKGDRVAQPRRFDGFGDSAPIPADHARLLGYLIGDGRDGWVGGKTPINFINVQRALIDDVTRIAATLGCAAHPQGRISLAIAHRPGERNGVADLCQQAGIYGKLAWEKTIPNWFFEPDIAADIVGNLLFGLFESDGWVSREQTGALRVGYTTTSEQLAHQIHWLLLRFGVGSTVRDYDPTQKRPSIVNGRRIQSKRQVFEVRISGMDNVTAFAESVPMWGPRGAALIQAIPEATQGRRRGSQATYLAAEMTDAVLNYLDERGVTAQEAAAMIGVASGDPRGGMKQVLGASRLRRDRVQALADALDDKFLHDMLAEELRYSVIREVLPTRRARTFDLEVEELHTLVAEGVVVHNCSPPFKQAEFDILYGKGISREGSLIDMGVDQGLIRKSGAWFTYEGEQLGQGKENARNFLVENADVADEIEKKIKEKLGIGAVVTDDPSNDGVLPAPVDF
Put plainly: Fluorescence Cell-Free Homogeneous Dose Retest to Identify Inhibitors of RecA-Intein Splicing Activity. [Related pubchem assays (depositor defined):AID2097, AID2223, AID489010, AID492950]. It counts as functional.

Chain of Large T antigen (P03070 whole entry): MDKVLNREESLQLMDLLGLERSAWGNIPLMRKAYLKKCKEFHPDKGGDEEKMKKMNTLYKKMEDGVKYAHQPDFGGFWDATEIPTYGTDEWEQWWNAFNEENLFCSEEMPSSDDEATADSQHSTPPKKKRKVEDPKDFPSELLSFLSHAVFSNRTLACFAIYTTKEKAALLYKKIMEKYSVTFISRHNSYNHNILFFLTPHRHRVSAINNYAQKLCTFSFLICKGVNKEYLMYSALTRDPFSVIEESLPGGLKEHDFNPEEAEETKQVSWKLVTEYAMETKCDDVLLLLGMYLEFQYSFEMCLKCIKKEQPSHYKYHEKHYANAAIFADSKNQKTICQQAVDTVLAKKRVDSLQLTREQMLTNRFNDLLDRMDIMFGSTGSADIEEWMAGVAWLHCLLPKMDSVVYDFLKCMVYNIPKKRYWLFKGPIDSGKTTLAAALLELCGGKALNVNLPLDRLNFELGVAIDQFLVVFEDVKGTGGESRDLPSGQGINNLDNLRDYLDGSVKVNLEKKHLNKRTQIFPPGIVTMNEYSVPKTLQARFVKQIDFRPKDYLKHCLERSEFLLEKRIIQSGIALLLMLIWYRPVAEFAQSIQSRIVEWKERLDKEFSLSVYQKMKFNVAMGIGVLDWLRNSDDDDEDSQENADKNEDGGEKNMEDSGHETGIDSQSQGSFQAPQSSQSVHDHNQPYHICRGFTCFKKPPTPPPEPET

As for `NC(=NOCC(=O)Nc1ccccc1)c1nonc1N`, the IC50 in assay [1] is > 47.1 µM (inactive). In addition, the EC50 in [2] was > 53 µM (inactive).

On to `CS(=O)(=O)N1CCN(C(=O)COc2ccc3ccccc3c2)CC1`, for which the IC50 in [1] was > 47.1 µM (inactive). The EC50 in assay [2] was > 53 µM (inactive).

As to `CCOc1cccc(Nc2cc3n(c(=O)n2)CCc2cc(OC)c(OC)cc2-3)c1`, the IC50 in the assay on H9c2 is 12.8 µM (active).

For `COc1cc(/C=N\NC(=O)c2c(C)nc3cc(C)ccn23)ccc1O`, the IC50 at Large T antigen was 13.4 µM (active); in assay [3], 33.3 µM (active).

Turning to `C/C(CC(=O)Nc1ccc(N(C)C)cc1)=N\NC(=O)c1ccc([N+](=O)[O-])cc1Cl`, the IC50 on Large T antigen was 9.88 µM (active); in assay [3], 66.7 µM (active).

For the compound `Cc1cccc(NC(=O)Cc2ccc(NC3=NC4CS(=O)(=O)CC4S3)cc2)c1` (centres undefined), the IC50 in assay [1] is > 47.1 µM (inactive). The EC50 in assay [2] is > 53 µM (inactive).

For the compound `C/C(=N/NC(=O)CSc1nc2ccccc2n1C)c1ccc(O)cc1`, the values for the IC50 (on Large T antigen; in assay [3]) were 30.9 µM (active) and 138 µM (active), respectively.

As for `CCN1C(=O)/C(=C/c2nc3ccccc3c(=O)n2-c2ccccc2)c2ccccc21`, the IC50 in the assay with H9c2 was > 79 µM (inactive).

In the case of `COc1cc(NC(=O)[C@H](C)NC(=O)N2CCn3c2nc2ccccc23)cc(OC)c1`, in [1], the IC50 was > 47.1 µM (inactive). Further, the EC50 in [2] is > 53 µM (inactive).

Turning to `Nc1nn(S(=O)(=O)c2ccccc2)cc1-c1ccc([N+](=O)[O-])cc1`, the IC50 in assay [1] was > 47.1 µM (inactive). The EC50 in assay [2] is > 53 µM (inactive).

For the compound `C/C(=N\CCCn1ccnc1)c1c(-c2ccccc2)[nH]n(-c2nc3ccccc3s2)c1=O`, the IC50 with H9c2 is > 79 µM (inactive).

In the case of `O=C(Cn1nc(Cl)nc1Cl)Nc1ccccc1`, the IC50 in [1] was > 47.1 µM (inactive). Also, in assay [2], the EC50 was > 53 µM (inactive).

Regarding `CN(C(=O)COC(=O)CCc1nc2ccccc2c(=O)[nH]1)C1CCS(=O)(=O)C1` (centres undefined), in [1], the IC50 is 40.1 µM (active). Besides, the EC50 in [2] is > 53 µM (inactive).

Consider `COc1ccc(-c2cc(C(=O)NC3CCCC3)c3ccccc3n2)cc1OC`, for which the IC50 in assay [1] was > 47.1 µM (inactive). Moreover, the EC50 in assay [2] is > 53 µM (inactive).

`CCOC(=O)Cc1nnc(O)c2ccccc12`: the IC50 in the assay with H9c2 was 11.1 µM (active).

For the compound `CCN(C(=O)CCc1nnc2ccc(N3CCC4(CC3)OCCO4)nn12)c1ccccc1`, the IC50 in assay [1] is > 47.1 µM (inactive). The EC50 in [2] was > 53 µM (inactive).

As for `CCOc1ccc2nc(O)c(CN(CCO)C3(c4nnnn4C4CCCCC4)CCCCC3)cc2c1`, the IC50 in the assay with H9c2 is 26.4 µM (active).

In the case of `CC(NC(=O)Cn1nc(C(=O)O)c2ccccc2c1=O)c1ccccc1` (centres undefined), the IC50 in the assay with H9c2 was 18.3 µM (active).

With `CCC(=O)c1ccc(OCC(=O)NCCCN2CCOCC2)cc1`, the IC50 in assay [1] is > 47.1 µM (inactive). Besides, the EC50 in assay [2] was > 53 µM (inactive).

In the case of `CCc1c(C)nc(SCC(=O)N2CCN(c3ccccc3OC)CC2)nc1O`, the IC50 in assay [1] was > 47.1 µM (inactive). Further, the EC50 in [2] is > 53 µM (inactive).

With `O=C1CCSc2c1ccc1ccccc21`, in assay [1], the IC50 is > 47.1 µM (inactive). In addition, the EC50 in assay [2] was > 53 µM (inactive).

`COc1ccc2nc(O)c(CN(Cc3ccco3)C(c3nnnn3Cc3ccccc3)C(C)C)cc2c1` (centres undefined): the EC50 in assay [4] and in assay [5] was > 60 µM (not active) in each case. Further, the IC50 in the assay on H9c2 was > 79 µM (inactive).

`CCOc1cc(/C=N\NC(=O)CC(=O)NCCc2ccccc2)ccc1O`: the IC50 at Large T antigen is 7.94 µM (active); in assay [3], 46.5 µM (active).

In general, AC50 refers to the concentration at which the activity in the assay is half-maximal. In the case of `Cc1cc(F)ccc1S(=O)(=O)N(C(=O)c1ccncc1)c1ccc(OC(=O)c2ccncc2)cc1`, the IC50 on Large T antigen was 50.7 µM (active). For the same compound, the AC50 in assay [6] is 4.53 µM (active). The EC50 at Protein RecA was 14.1 µM (active).
